# Measured values as given in patent US6884777B1, “Method for treating respiratory distress syndrome” (The Nemours Foundation, priority 2000, dated 2005).
# What was measured:
# pregnant rats = assay: Antenatal treatment of pregnant rats: weight of maternal and fetal lungs; format: in vivo, rat; details: delivery at d18; for Weight fetal lung (g)/g fetus / Average weight fetal lungs: antenatal treatment 48 h; for Average weight fetal lungs: n = 9; for increase of average fetal lung weight in relation to body weight: i.p. at d16 of gestation and 24 h later, leptin 1 mg/kg, dexamethasone 6 mg/kg, vs control
# Procedure: Leptin (1 mg/kg body weight) was administered to pregnant rats at d16 of gestation and 24 h later by intraperitoneal injection. Dexamethasone at 6 mg per kg body weight was administered at similar time intervals as leptin. In addition, the effect of a combination of leptin and dexamethasone treatment was tested. After 48 h of leptin, dexamethasone or leptin/dexamethasone exposure, premature delivery of the rat pups was induced at d18, which is similar to 30 weeks of gestation in the human. The fetuses from each litter were pooled and weighed, and various tissues from both the rat fetuses and mothers were also dissected and weighed. […] Antenatal treatment with dexamethasone increased fetal lung weight by 41%.
# [1] = tested on: SP-B (surfactant protein-B); assay: Western blot of SP-B in 21-day gestation fetal rat lung explants cultured with leptin; format: cell-based; details: d21 explants
# Procedure: FIG. 1 is a Western blot analysis of SP-B (surfactant protein-B) from 21-day gestation, fetal rat lung explants cultured in the presence or absence of leptin. Fetal lung explants were exposed to either (A) 1 ng/ml or (B) 10 ng/ml leptin from initiation of culture (day 0). Explants were harvested and protein extracts were prepared on days (d) 1, 2, and 3 of culture. Western blots were probed with an antibody specific to rat SP-B.
# We have used a fetal lung explant model to mimic the conditions of the premature lung. Lungs from d21 rat fetuses, term being 22 days, were dissected free of heart, trachea and bronchi and placed in ice-cold serum free Waymouth medium and cut into 1 mm^3 pieces on a McIlwain tissue chopper. The lung explants were placed in tissue culture dishes that were scratched (along each half) to facilitate attachment of explants. The excess medium was aspirated and fresh medium (2 ml for 60 mm plate) was gently placed on the explants. The 17-21 d explants were incubated in 95% O2-5% CO2, since incubation of these explants in 5% CO2 in air can cause compression of airways (Gross and Wilson, J. Appl. Physiol. 55: 1725-32, 1983). The petri dishes were placed on a tilting platform and allowed to rest for 90 min in a humidified atmosphere in a CO2 incubator. Thereafter, the plates were tilted at 34 cycles per minute so that during each cycle, one half of the petri dish was exposed to gas phase and the other half was covered with the medium. Leptin at either 1 or 10 ng/ml was added to the explant cultures on the day of establishment of the culture (day 0). The explants were cultured for varying periods of time for up to 3 days, and protein extracts were prepared to establish a time course for leptin effects on the fetal lung. Surfactant proteins were separated by electrophoresis on 15% polyacrylamide—SDS gels, and transferred to nitrocellulose membranes by electroblotting. The membranes were blocked with 2% gelatin (BioRad), treated overnight with anti-SP-B, and then with secondary antibody (goat anti-rabbit HRP-conjugated antibody). […]
# SP-A, SP-B, SP-C mRNA = assay: RT-PCR of surfactant protein mRNA in day 17 fetal lung explant cultures; format: cell-based, rat; details: 1 ng/ml leptin
# Procedure: Cultures were exposed to 1 ng/ml leptin (lanes 3, A-C) or control medium (lanes 2, A-C), and total RNA was isolated at the indicated day of culture. Total RNA was reverse transcribed and amplified with both β-actin and […] PCR primers. In each figure, lane 1 is the time of initiation of culture (day 0). Low levels of all surfactant RNAs were detected in the uncultured cells (lanes 1, A-C). The size of the β-actin RT/PCR product is 492 bp; the size of SP-A is 352 bp; SP-B is 201 bp, and SP-C is 284 bp.
# Qualitative RT/PCR detection of surfactant mRNA was performed using the Ambion QuantumRNA kit (Ambion, Austin, Tex.) and 1 μg of total RNA isolated from explants cultured for 3 days in culture. Lanes 1, 3,5: control day 3; lanes 2, 4, 6: 1 ng/ml leptin day 3.
# To explore the effect of gestational age on surfactant production in response to leptin, we exposed younger lung explant cultures (d17) to 1 ng/ml leptin. Total RNA was extracted by homogenizing the explants in 4M guanidine thiocyanate, applying the lysate on a Qiagen RNeasy column (Qiagen, Chatsworth, Calif.), and recovering total RNA according to the manufacturer's instructions. RNA was quantified by measurement of absorbancy at 260 nm (A260). The quality of RNA was assessed by the A260/A280 ratio and by separation on agarose gels. Total RNA (1 μg) was brought up to 10 μl in DEPC-treated water. The sample was heated to 75° C. for 3 min, placed on ice, and cDNA synthesis was performed by reverse transcription for 15 min at 42° C. in a 20 μl reaction containing 1×PCR buffer II (Perkin-Elmer), 5 mM MgCl2, 1.25 mM each dNTP, 1 U/μl RNasin (Promega), 12.5 μg/μl oligo (dT) 15, and 2.5 U/μl AMV reverse transcriptase (Promega Madison, Wis.). Subsequent amplification of the cDNA sequence was performed with 10 μl of the reverse transcription reaction in 1×Taq buffer, 5% DMSO, 25 pmol each primer (Table 1), and 1.25 U Taq polymerase in a 50 μl reaction volume.
# For assessment of the relative levels of SP-A, SP-B and SP-C transcripts, a multiplex RT/PCR reaction with β-actin was used. The temperature profile for the PCR reactions consisted of a 2 min melting step at 95° C., then 30 cycles of 30 s at 94° C., 30 s at 55° C., and 60 sec at 65° C., followed by a final extension step of 5 min at 72° C. RT-PCR products were separated by size on a 4% agarose gel and stained with ethidium bromide. Gel visualization and quantitative analysis of relative band intensities was performed using Eagle Eye II hardware and software (Stratagene, La Jolla, Calif.).
# However, leptin also increases the levels of P-actin in fetal lung explant cultures. […] Therefore, we chose to use 18S rRNA to determine the relative levels of surfactant mRNA because of the invariant expression of 18S rRNA across tissues and treatments. Since 18S rRNA is much more abundant than any mRNA species, modified 18S rRNA primers called competimers (Ambion) are used that cannot be extended by Taq polymerase. By adjusting the ratio of competimers to normal 18S rRNA primers, the RT/PCR signal for 18S rRNA can be decreased to the level of even rare messages, as described by the manufacturer. […] These experiments support the hypothesis that leptin has an effect on the maturation of type II alveolar cells.
# [2] = tested on: leptin receptor OB-Rb mRNA; assay: RT-PCR of leptin receptor expression in day 17 fetal lung explant cultures; format: cell-based, rat; details: d17 fetal lung explants, 3 days; 1 ng/ml leptin or 10 nM dexamethasone
# Procedure: FIG. 4 depicts RT-PCR analysis of leptin receptor expression in day 17 fetal lung explant cultures. Total RNA was reverse transcribed and amplified with either the short (OB-Ra) or the long (OB-Rb) form of the leptin receptor. Day 0 (Cd0) represents the time of initiation of culture. The fetal lung explants were exposed for 3 days to either control medium (Cd3), 1 ng/ml leptin (Ld3), or 10 nM dexamethasone (Dexd3). The size of the OB-Ra RT/PCR product is 479 bp and OB-Rb is 262 bp.
# To explore the effect of gestational age on surfactant production in response to leptin, we exposed younger lung explant cultures (d17) to 1 ng/ml leptin. Total RNA was extracted by homogenizing the explants in 4M guanidine thiocyanate, applying the lysate on a Qiagen RNeasy column (Qiagen, Chatsworth, Calif.), and recovering total RNA according to the manufacturer's instructions. RNA was quantified by measurement of absorbancy at 260 nm (A260). The quality of RNA was assessed by the A260/A280 ratio and by separation on agarose gels. Total RNA (1 μg) was brought up to 10 μl in DEPC-treated water. […]
# [3] = tested on: isolated type II alveolar cells; assay: RT-PCR of surfactant and GAPDH mRNA in cultured isolated fetal type II alveolar cells; format: cell-based, rat; details: 1 ng/ml leptin, 24 h, d19 type II cells
# Procedure: FIG. 5 depicts RT-PCR analysis of surfactant and GADPH (glyceraldehyde phosphate dehydrogenase) mRNA expression in cultured isolated type II alveolar cells. Cells were exposed to either 1 ng/ml leptin (1 L) or 10 ng/ml leptin (10 L). Control cells were not exposed to leptin.
# To determine if the leptin effect on surfactant production was due to a direct effect of leptin on the type II alveolar cell, we determined whether the effects of leptin could be reproduced in isolated type II alveolar cells in culture. Alveolar type II cells were obtained from the lungs of 19-d gestation fetal rats by the method described by Bhandari et al., (Pediatr. Res. 41:166-71, 1997). In brief, lungs of 19-day gestation fetal rats were removed, dissected free of connective tissue and nonparenchymal pulmonary tissue, and cultured as explants for 40-48 h in serum free Waymouth MB 752/1 medium with penicillin and streptomycin in humidified 95% O2/5% CO2 at 37° C. […] The explant cells were then harvested and the cells dissociated using a solution of collagenase, trypsin and DNase. The mixed cell suspension was subjected to three differential adhesions to remove fibroblasts. The non-adherent suspension containing an enriched population of fetal type II cells was plated at 2×10^6 cells/35 mm dish in 2 ml of minimum essential medium containing penicillin (100 U/ml), kanamycin ([…]) and 2% fetal bovine serum. The cells were cultured for 20-22 h at 37° C. in […] (Bhandari et al., Pediatr. Res. 41:166-71, 1997). Cultures contain 90-95% type II cells of which >99% are viable as determined by exclusion of the vital dye, trypan blue. The usual yield of type II cells from the lungs of the fetuses (10-16) per pregnant rat is approximately 10^7 cells.
# Type II cells from d19 fetal lungs were cultured for 24 h and then exposed to either 1 or 10 ng/ml leptin for 24 h. Total RNA was isolated from these cells and then examined for SP-A, SP-B, SP-C, and GAPDH (housekeeping gene) mRNA expression.
# type II alveolar cells = assay: Histologic analysis of fetal lung after antenatal treatment (alkaline phosphatase staining); format: in vivo, rat; details: antenatal treatment for 48 h, alkaline phosphatase staining (FIG. 6)
# Procedure: FIG. 6 depicts the effect of antenatal treatment with leptin or dexamethasone on fetal lung morphology. Fetal lung sections were stained with a histochemical stain for alkaline phosphatase, which identifies type II cells. Control, no leptin; dexamethasone (6 mg/ml for 48 h); leptin (0.25 mg/ml for 48 h).
# Histologic analysis of the lung tissue was done to determine the basis for the increased fetal lung weight. Type II cells were identified by alkaline phosphatase staining as previously described (Post and Smith, Am. Rev. Respir. Dis. 137: 525-30, 1988). Unfixed frozen 5 μm sections of fetal lung tissue were stained histochemically with alkaline phosphatase at pH 8.74 to identify type II alveolar cells. Slides were incubated for 60 minutes at 37° C. in 25 ml of 0.2M Tris-HCl buffer and 25 ml of deionized water, 5 mg of Naphthol AS-BI phosphate, 0.1 ml dimethylformamide, and 30 mg of fast red TR. The slides were then rinsed in 3 changes of deionized water, counterstained for 30 seconds in Harris hematoxylin and blued in running water for 3-5 minutes. Slides were mounted from water in Advantage™.
# ob/ob mice = details: cited from earlier work
# cornea from normal rats = details: but not fa/fa Zucker rats, Sierra-Honigmann et al.; cited from earlier work
# [4] = d17 explants, multiplex RT/PCR with β-actin (FIG. 2)
# [5] = d17 lung explants, 3 days in culture
OB-Rb mRNA levels [2],Compound,Weight fetal lung (g)/g fetus (pregnant rats),Average weight fetal lungs (pregnant rats),increase of average fetal lung weight in relation to body weight (pregnant rats),"SP-B production ([1]; 1 ng/ml leptin, 48 or 72 h exposure, vs control cultures)","SP-B levels ([1]; 10 ng/ml leptin, 48 and 72 h)","SP-B production ([1]; 10 ng/ml leptin, 24 h)","SP-A mRNA levels (SP-A, SP-B, SP-C mRNA; [4])","SP-C mRNA levels (SP-A, SP-B, SP-C mRNA; [4])","SP-A mRNA level relative to 18S rRNA, increase (SP-A, SP-B, SP-C mRNA; [5])","SP-B mRNA level relative to 18S rRNA, increase (SP-A, SP-B, SP-C mRNA; [5])","SP-C mRNA level relative to 18S rRNA, increase (SP-A, SP-B, SP-C mRNA; [5])","levels of β-actin (SP-A, SP-B, SP-C mRNA; fetal lung explant cultures (FIG. 2))",SP-A mRNA levels [3],SP-B mRNA levels [3],SP-C mRNA levels [3],number of type II alveolar cells in fetal lung (type II alveolar cells),respiratory depression (ob/ob mice; O'Donnell et al. 1999),volume-dependent decrease in lung compliance (ob/ob mice; Tankersley et al. 1998),neovascularization in cornea (cornea from normal rats)
–,"C[C@@H]1C[C@H]2[C@@H]3CCC4=CC(=O)C=C[C@]4(C)[C@@]3(F)[C@@H](O)C[C@]2(C)[C@@]1(O)C(=O)CO [Dexamethasone, dexamethasone, reference compound]",0.52 g/g fetus,0.79 (n = 9) g,41%,–,–,–,–,–,–,–,–,–,–,–,–,–,–,–,–
decreases,leptin,0.56 g/g fetus,0.87 (n = 9) g,51%,increases SP-B production above that of the control cultures,decreases SP-B levels,increases SP-B production,significantly increases,significantly increases,1.6 fold,5 fold,2 fold,increases,increased,increased,increased,increase in the number of type II alveolar cells,prevent respiratory depression,ameliorated,induces neovascularization
